Among the data in patent publication US12534465B2, “5H-pyrrolo[3,2-d]pyrimidine-2,4-diamino compounds and antibody conjugates thereof” (SUTRO BIOPHARMA, INC., priority 2019, dated 2026) are EC50 values, retold here.

The structures appear in SMILES notation.

The target of test [1] is T1, human TLR7 (Homo sapiens, UniProt Q9NYK1).
T1 construct: host or cells: HEK293
T1 sequence (Q9NYK1 27-1049): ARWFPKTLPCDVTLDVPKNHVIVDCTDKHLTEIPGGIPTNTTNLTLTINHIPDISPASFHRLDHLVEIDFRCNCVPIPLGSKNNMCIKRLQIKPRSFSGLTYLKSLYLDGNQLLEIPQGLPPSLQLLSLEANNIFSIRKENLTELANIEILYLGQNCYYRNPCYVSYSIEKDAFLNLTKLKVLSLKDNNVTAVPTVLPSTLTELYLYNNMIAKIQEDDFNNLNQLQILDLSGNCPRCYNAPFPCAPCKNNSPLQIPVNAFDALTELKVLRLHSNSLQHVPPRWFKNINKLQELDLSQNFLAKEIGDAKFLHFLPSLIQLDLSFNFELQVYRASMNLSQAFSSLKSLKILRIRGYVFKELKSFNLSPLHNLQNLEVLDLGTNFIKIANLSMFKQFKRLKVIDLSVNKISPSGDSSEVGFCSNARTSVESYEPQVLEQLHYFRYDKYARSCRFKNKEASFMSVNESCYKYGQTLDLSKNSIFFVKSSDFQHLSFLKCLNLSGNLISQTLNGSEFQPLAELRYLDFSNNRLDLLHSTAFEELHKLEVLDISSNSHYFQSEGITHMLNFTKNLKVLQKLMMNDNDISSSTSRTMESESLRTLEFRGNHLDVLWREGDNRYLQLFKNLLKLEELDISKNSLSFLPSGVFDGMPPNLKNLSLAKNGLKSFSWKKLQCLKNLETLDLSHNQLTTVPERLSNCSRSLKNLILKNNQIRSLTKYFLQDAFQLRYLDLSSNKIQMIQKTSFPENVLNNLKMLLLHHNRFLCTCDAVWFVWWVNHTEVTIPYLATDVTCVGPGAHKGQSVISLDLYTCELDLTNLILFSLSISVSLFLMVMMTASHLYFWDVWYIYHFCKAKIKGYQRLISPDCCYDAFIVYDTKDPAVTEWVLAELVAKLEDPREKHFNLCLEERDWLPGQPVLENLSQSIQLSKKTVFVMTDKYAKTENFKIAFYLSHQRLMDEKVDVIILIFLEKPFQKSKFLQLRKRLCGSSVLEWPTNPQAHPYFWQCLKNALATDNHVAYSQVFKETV
As to the kind of experiment: HEK293-humanTLR7 SEAP reporter assay (Example 8). The class given is cell-based. The settings on record: HEK293-hTLR7 SEAP reporter cells, 24 hrs. The procedure:
In this example, the in vitro activity of compounds to activate human TLR7 (or human TLR8 or mouse TLR7) pathway was evaluated on HEK293 reporter cells transfected with human TLR7 (or human TLR8 or mouse TLR7) and an inducible SEAP (secreted embryonic alkaline phosphatase) reporter gene. The SEAP reporter gene is placed under the control of the IFN-β minimal promoter fused to five NF-κB and AP-1-binding sites. Stimulation with a TLR7 agonist activates NF-κB and AP-1 which induces the production of SEAP. Levels of SEAP were determined by HEK-Blue Detection medium.
The in vitro activity of compounds on TLR7 (human and mouse) and TLR8 (human only) reporter cell lines was assessed as follows. 5-(2-methoxy-4-(piperazin-1-ylmethyl)benzyl)-N4-pentyl-5H-pyrrolo[3,2-d]pyrimidine-2,4-diamine (Compound 1) is a compound used for comparison and has the structure shown below:
HEK293-humanTLR7 (hTLR7), HEK293-mouseTLR7 (mTLR7) and HEK293-humanTLR8 (hTLR8) reporter cell lines were purchased from Invivogen and cell lines were maintained in the manufacturer's recommended culture medium with required supplemental antibiotics. On the day of assay, the cells were harvested with Accutase and counted by the Vi-CELL Cell Viability Analyzers. Cells were resuspended in HEK blue detection medium and a total of 10,000 cells were seeded in each well of a 384-well flat bottom plate. Serial dilutions of test compounds (1:4 serial dilution starting from 5 μM) were added into treatment wells and assay plates were cultured at 37° C. in a CO2 incubator for 24 hrs. The plates were then read by spectrophotometry at 640 nm. Data was fitted with non-linear regression analysis, using a log(inhibitor) vs. response-variable slope, 3-parameter fit with GraphPad Prism. There result was reported in Table 1 as EC50 (the midpoint of the curve, or concentration at which 50% of the maximum effect was observed).
For orientation: In a reporter assay the amount or activity of a reporter protein is the signal.

The target of test [2] is T1, human TLR7. As to the kind of experiment: HEK293 SEAP reporter assay, TLR panel (Example 10). It counts as cell-based. The settings on record: 16 hrs. The text has this: In this example, the activity of the compound 10 to stimulate different human and mouse TLR pathways was investigated on HEK293 cells transfected with inducible SEAP (secreted embryonic alkaline phosphatase) reporter genes and also expressing different human TLRs (TLR2, TLR3, TLR4, TLR5, TLR7, TLR8, TLR9) or mouse TLRs (TLR2, TLR3, TLR4, TLR5, TLR7, TLR8, TLR13).
HEK293 reporter cell lines were purchased from Invivogen and cell lines were maintained in manufacture recommended culture medium with required supplemental antibiotics. On the day of assay, the cells were harvested with Accutase and counted by the Vi-CELL Cell Viability Analyzers. Cells were resuspended in HEK blue detection medium and a total of 10000 cells were seeded in each well of a 384-well flat bottom plate. Serial dilutions of compound 10 and compound 1 was added into treatment wells. Assay plates were cultured at 37° C. in a CO2 incubator for 16 hrs. HEK-Blue™ Detection medium changes to a purple/blue color in the presence of secreted SEAP, which can be detected by spectrophotometry at 620-655 nm. Data was fitted with non-linear regression analysis, using a log(inhibitor) vs. response-variable slope, 3-parameter fit with GraphPad Prism.

Consider `CCCCCNc1nc(N)nc2ccn(Cc3ccc(CN4CCNCC4)cc3OC)c12` [Compound 1, 5-(2-methoxy-4-(piperazin-1-ylmethyl)benzyl)-N4-pentyl-5H-pyrrolo[3,2-d]pyrimidine-2,4-diamine, reference compound], for which the half-maximal effective concentration (EC50) (commonly the concentration that produces a half-maximal response) turned out to be 1.9 nM on human TLR7 [1] and 2.17 nM on human TLR7 [2].

`CCCCCNc1nc(N)nc2ccn(Cc3ccc(CN4CC(NC)C4)cc3OC)c12` [Compound 2, 5-(2-methoxy-4-((3-(methylamino)azetidin-1-yl)methyl)benzyl)-N4-pentyl-5H-pyrrolo[3,2-d]pyrimidine-2,4-diamine]: on human TLR7 [1], it took 1.6 nM to reach a half-maximal effect (EC50).

For `CCCCCNc1nc(N)nc2ccn(Cc3ccc(CN4CC5(CNCCO5)C4)cc3OC)c12` [Compound 10, 5-[[2-methoxy-4-(5-oxa-2,8-diazaspiro[3.5]nonan-2-ylmethyl)phenyl]methyl]-N4-pentyl-pyrrolo[3,2-d]pyrimidine-2,4-diamine], the half-maximal effective concentration (EC50) on human TLR7 [1] was determined as 1.5 nM; on human TLR7 [2] it was 11 nM.
